# Assay results: patent US6737237B1, “Antimicrobial agents, diagnostic reagents, and vaccines based on unique Apicomplexan parasite components” (Apicomplexan Therapeutics, LLC, priority 1999, dated 2004)
# What was measured:
# [1] = test system: T. gondii tachyzoites (RH strain); test: microbe, parasite or virus in culture; assay type: cell-based, Toxoplasma gondii
# Protocol: The improvements are based on microscopic visual imspection of infected and inhibitor treated cultures, and on quantitation of nucleic acid synthesis of the parasite by measure intake of ^3H uracil onto the parasite's nucleic acid. Uracil is not utilized by mammalian cells. […] Only the RH strain tachyzoites, cultured for up to 72 hours, had been used in previously reported assays. The use of Me49, Ptg, and R5 mutant are unique aspects of the methods used in these assays in this invention.
# (§1) In these assays toxicity of a candidate inhibitor was assessed by its ability to prevent growth of human foreskin fibroblasts (HFF) after 4 days and after 8 days as measured by tritiated thymidine uptake and microscopic evaluation. Confluent monolayers of HFF were infected with tachyzoites and bradyzoites. Inhibitor was added one hour later. Non-toxic doses were used in parasite growth inhibition assays. Parasite growth was measured by ability to incorporate tritiated uracil during the last 18 hours of culture.
# (§2) First the toxicity of gabaculine was assessed by its ability to prevent growth of human foreskin fibroblasts (HFF) as measured by ^3H-thymidine uptake and microscopic evaluation. Non-toxic doses were used in parasite growth inhibition assays. in vitro parasite growth inhibition assays included confluent monolayers of HFF infected with tachyzoites (RH) or mutant Me49 (R5). Gabaculine was added 1 hour later. Parasite growth was measured by the ability to incorporate ^3H-uracil during the last 18 hours of culture. In addition, parasite growth was evaluated microscopically in Giemsa stained slides.
# ii) in vitro Parasite Growth Inhibition Assays: Confluent monolayers of HFF cells, grown in 96-well plates are infected with T. gondii tachyzoites of the RH strain and serial dilutions of anti-microbial compound are applied 1 hour later. T. gondii growth is assessed in these cultures by their ability to incorporate tritiated uracil (2.5 μCi/well) added during the last 18 hours of culture. After harvesting cells with an automatic cell harvester, uracil incorporation is measured by liquid scintillation.
# [2] = test system: human foreskin fibroblasts (HFF); test: Toxicity: growth of fibroblasts, tritiated thymidine uptake and microscopic evaluation; assay type: cell-based; details: herbicide experiments
# Protocol: as §1, §2
# d) Inhibitors: Inhibitor compounds are tested over a range of concentrations for toxicity against mammalian cells by assessing their ability to prevent cell growth as measured by tritiated thymidine uptake and inspection of the monolayer using microscopic evaluation. […]
# Toxoplasma gondii ACC = test: ACC activity in T. gondii tachyzoite protein extracts (carboxyl incorporation from bicarbonate); assay type: biochemical
# Text: In plants, genes encoding enzymes for fatty acid synthesis, including various subunits of ACC except one, are present in the nuclear genome and their protein products are imported and function in plastids. ACC, catalyzing the first committed step of de novo fatty acid biosynthesis, is a known selective target of aryloxyphenoxypropionate (“fops”) and cyclohexanedione (“dims”) herbicides in sensitive species. The molecular mechanism of inhibition/resistance of the enzyme is not know but there is a strong correlation between the enzyme structure and its origin. The high molecular weight multi-domain ACC that is localized in plastids of grasses is extremely sensitive to these herbicides. All of the multi-subunit chloroplast enzymes of dicot plants and bacteria as well as other multi-domain cytosolic ACCs, such as those from man, chicken, rat and yeast, are resistant. ACC activity is conveniently measured in vitro by the incorporation of the carboxyl group from bicarbonate into an acid-stable form using crude protein extracts after Sephadex G50 filtration. […] One band at 240 kDa corresponded to the expected size for a subunit of ACC, while another at 130 kDA corresponded to the size expected for pyruvate carboxylase (PC).
# (§3) Structures of fops and dims were tested on the ACC-containing protein extracts of T. gondii described above. Three of the four fops were striking inhibitors of the activity, while none of the dims had any effect against the enzyme. […] Effects of the herbicides on uninfected fibroblasts and on T. gondii growth and replication were tested as previously described by Roberts et al., 1998 using incorporation of radiolabeled thymidine by growing fibroblasts to assess toxicity and incorporation of radiolabeled uracil to measure T. gondii growth and persistence. Anti-parasite activity and toxicity for four fops and one representative dim were determined. Pyrimethamine and sulfadiazine, antimicrobial agents which are known inhibitors of folate synthesis, were included as positive control. […] Consistent with the data for ACC activity in vitro, the inhibitory activity of the fops and the dim on T. gondii growth in fibroblasts was in the same concentration range. […] With regard to toxicity, fops are mildly toxic at the highest concentration, 400 μM. In separate experiments, the effect of Clodinafop on T. gondii was assessed by light microscopy. […] In this experiment, cultures were incubated for 2 more days without the inhibitor.
# Toxoplasma tachyzoites = test: Light microscopy of T. gondii infected fibroblasts treated with Clodinafop; assay type: cell-based, Toxoplasma gondii; details: for parasites in infected fibroblasts: 4-day treatment, one change of medium and inhibitor after 2 days, then 2 more days without inhibitor; for number of T. gondii cells in infected fibroblasts: two days
# Protocol: as §3
# T. gondii [3] = test: Assay for synergy in vitro: inhibitors alone and together on replication of T. gondii (uracil CPM); assay type: cell-based, Toxoplasma gondii; details: for CPM for B: Drug B alone: Sulfadiazine (6.25 μg/ml), Pyrimethamine (0.025 μg/ml), SHAM (0.78 μg/ml)
# Text: The effect of enzymes in pathways “in parallel” are additive and in “series” are more than the additive effect of either inhibitor used alone (i.e., synergistic). […] The shikimate pathway produces 3,4-dihdroxybenzoate which is converted to ubiquinone, an essential component of the electron transport chain. Thus, NPMG, an inhibitor of EPSP-synthase, indirectly affects ubiquinone production and, thus, the electron transport chain. Similarly, heme is required for production of cytochromes in the electron transport chain. Thus, inhibition of heme production by gabaculine also indirectly affects the conventional electron transport chain. […] T. gondii growth is measured by their ability to incorporate tritiated uracil and is expressed as counts/minute (CPM).
# g) Assays for Synergy in vitro: This is an assy in which ≦50% inhibitor concentrations of two antimicrobial agents are added alone and together to determine whether there is an additive, synergistic or inhibitory interaction. All other aspects of this assay are as described herein.
# C. parvum = C. parvum infection of MDBKF5D2 cell monolayers, immunofluorescence assay at 48 hours; assay type: cell-based, Cryptosporidium parvum
# Protocol: C. parvum oocysts at 50,000/well were incubated at 37° C. (8% CO2) on confluent MDBKF5D2 cell monolayers in 96 well microtiter plates with the following concentrations of each drug. […] The level of infection of each well was determined and analyzed by an immunofluorescence assay at 48 hours using an antibody to C. parvum sporozoites made in rabbits at a concentration of 0.1%. Fluorescein-conjugated goat anti-rabbit antibody was used at a concentration of 1%.
# (8% carbon dioxide) on confluent MDBKF5D2 cell monolayers in 96 well microtiter plates. The level of infection of each well was determined and analyzed by an immunofluorescence assay at 48 hours using as an antibody C. parvum sporozoite rabbit anti-serum (0.1%), and using fluorescein-conjugated goat anti-rabbit antibody (1%). Data are expressed as mean parasite count/field when 16 fields counted at 10× magnification “s.d. of the mean” (FIG. 6).
# T. gondii [4] = test: Effect of inhibitors on T. gondii infection in vivo (manifestations, parasitemia, brain cysts); set-up: species or system mice; details: mouse
# Protocol: Cyst numbers present in a suspension of brain are enumerated, or cyst numbers in formalin fixed paraffin embedded sections are quantitated.
# c) Persistance of Cysts: C3H/He mice are infected orally with 100 cysts of T. gondii (Me49 strain). Inhibitors are administered to groups of mice from day 30 post infection to day 50 post infection. Cyst burden, mortality and pathology are compared in treated and control mice on days 30 and 50 post infection and in mice that receive antibody to gamma interferon which leads to recrudescence of disease.
# A method to measure the amount of parasitemia in mouse peripheral blood has been developed. Briefly, the target for PCR amplification is the 35 fold repetitive B1 gene of T. gondii and the amplification was performed using primers previously reported. […] Competitive PCR was performed by spiking individual reactions (containing equal amounts of genomic DNA) with a dilution of the internal standard. Since this internal control contains the same primer template sequences, it competes with the B1 gene of T. gondii for primer binding and amplification. The sensitivity of the PCR reaction in each sample can be monitored. Following competitive PCR, the PCR products are distinguished by size and the amount of products generated by the target and internal standard can be compared on a gel. […]
# [5] = test system: D6 clone of Plasmodium falciparum; test: P. falciparum in vitro assay (Milhous et al., 1985), D6 clone; assay type: cell-based; details: D6, 66 h
compound,measurement,setting,value
C[C@@H](Oc1ccc(Oc2ncc(Cl)cc2F)cc1)C(=O)O [Clodinafop],inhibition of growth of T. gondii in human fibroblasts (uracil incorporation),[1]; 10 μM,70%
same,toxicity for fibroblasts (thymidine incorporation),[2],not toxic
same,inhibition of ACC activity,Toxoplasma gondii ACC; 20 μM,50%
same,inhibition of ACC activity,Toxoplasma gondii ACC; 100 μM,90%
same,parasites in infected fibroblasts,Toxoplasma tachyzoites; 10 μM,No parasite cells were found
same,parasites in infected fibroblasts,"Toxoplasma tachyzoites; 10 μM, listed as clodinafop",complete eradication
same,number of T. gondii cells in infected fibroblasts,Toxoplasma tachyzoites; 10 μM,substantial reduction
same,number of T. gondii cells in infected fibroblasts,Toxoplasma tachyzoites; 100 μM,almost complete removal
CCc1nc(N)nc(N)c1-c1ccc(Cl)cc1 [Pyrimethamine],CPM for B,T. gondii [3],69217 ± 3253 CPM
"CC(Oc1ccc(Oc2cnc3cc(Cl)ccc3n2)cc1)C(=O)O (centres unmarked) [Quizalofop, ()-2-[4-[(6-chloro-2-quinoxalinyl)oxy]phenoxy]propanoic acid]",inhibition of ACC activity,Toxoplasma gondii ACC; 20 μM,50%
same,inhibition of ACC activity,Toxoplasma gondii ACC; 100 μM,90%
CC(Oc1ccc(Oc2ccc(C(F)(F)F)cn2)cc1)C(=O)O (centres unmarked) [Fluazifop],effect on T. gondii ACC activity in crude extracts,Toxoplasma gondii ACC,relatively low inhibitory activity
NC[C@@H]1O[C@H](O[C@H]2[C@@H](O)[C@H](O[C@@H]3[C@@H](O)[C@H](N)C[C@H](N)[C@H]3O[C@H]3O[C@H](CO)[C@@H](O)[C@H](O)[C@H]3N)O[C@@H]2CO)[C@H](N)[C@@H](O)[C@@H]1O [paromomycin],approximate 95% C1 count (mean parasite count per field),"C. parvum; PRM without ethanol, media alone ~1800",~200
same,approximate 95% C1 count (mean parasite count per field),"C. parvum; paromomycin (PRM) and ethanol, media and ethanol ~1200",~100
CC1(C)N=C(N)N=C(N)N1c1ccc(Cl)cc1 [Cycloguanil],combined effect of two inhibitors in vitro (additive or synergistic),T. gondii [3]; T. gondii in culture,synergistic with NPMG
Nc1ccc(S(=O)(=O)Nc2ncccn2)cc1 [Sulfadiazine],growth of T. gondii reduced,[1],about 60%
same,CPM for B,T. gondii [3],25026 ± 4365 CPM
same,manifestations of infection in vivo,T. gondii [4],reduced manifestations of infection
CC(Oc1ccc(Oc2ncc(C(F)(F)F)cc2Cl)cc1)C(=O)O (centres unmarked) [Haloxyfop],inhibition of ACC activity,Toxoplasma gondii ACC; 20 μM,50%
same,inhibition of ACC activity,Toxoplasma gondii ACC; 100 μM,90%
"O=C(NO)c1ccccc1O [SHAM, Salicylhydroxamic acid]",CPM restricted (tritiated uracil incorporation),"[1]; SHAM 0.16 μg/ml (0.19), 4 day, medium around 54,000 CPM",around 50%
same,counts (tritiated uracil incorporation),"[1]; SHAM 0.78 μg/ml, 4 day, medium around 54,000, no RH around 1,000 CPM","about 8,000 CPM"
same,approximate 95% C1 count (mean parasite count per field),"C. parvum; SHAM 0.1 μg/ml, 0.2% ETOH, media and ethanol ~1200",~1200
same,approximate 95% C1 count (mean parasite count per field),"C. parvum; SHAM 1 μg/ml, 0.2% ETOH, media and ethanol ~1200",~1100
same,approximate 95% C1 count (mean parasite count per field),"C. parvum; SHAM 10 μg/ml, 0.2% ETOH, media and ethanol ~1200",~1100
same,approximate 95% C1 count (mean parasite count per field),"C. parvum; SHAM 100 μg/ml, 0.2% ETOH, media and ethanol ~1200",~400
same,CPM for B,T. gondii [3],42993 ± 1098 CPM
same,parasitemia and number of brain cysts,T. gondii [4],affects parasitemia and number of brain cysts
"Oc1cccc2cccnc12 [8-OH-quinoline, 8-hydroxyquinoline]",activity against T. gondii (tachyzoites),[1],effective
same,approximate 95% C1 count (mean parasite count per field),"C. parvum; 8-OH-quinoline 0.1 μg/ml, media alone ~1800",~1300
same,approximate 95% C1 count (mean parasite count per field),"C. parvum; 8-OH-quinoline 1 μg/ml, media alone ~1800",~1100
same,approximate 95% C1 count (mean parasite count per field),"C. parvum; 8-OH-quinoline 10 μg/ml, media alone ~1800",~900
same,approximate 95% C1 count (mean parasite count per field),"C. parvum; 8-OH-quinoline 100 μg/ml, media alone ~1800",~300
same,IC50,[5],1.2 µg/mL
same,IC90,[5],1.88 µg/mL
